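Each compound was tested at five concentrations against cells in 96-well plates for 48 hours. GI50 is the concentration that inhibits growth by half.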 Calls of active or inactive are those of the source. Rule as the data show it: active = GI50 up to about 1.1 µM and inactive = higher.
Tests used:
Assay in all cases: DTP human tumour cell line panel, 48 h
M19-MEL = system: M19-MEL
OVCAR-5 = system: OVCAR-5
A498 = system: A498
KM12 = system: KM12
HOP-62 = system: HOP-62
HCC 2998 = system: HCC 2998
ACHN = system: ACHN
Malme-3M = system: Malme-3M
OVCAR-4 = system: OVCAR-4
UACC-62 = system: UACC-62
HT-29 = system: HT-29
XF498 = system: XF498
SNB-75 = system: SNB-75
U-251 = system: U-251
RXF 393 = system: RXF 393
SF-268 = system: SF-268
NCI-H522 = system: NCI-H522
M14 = system: M14
LOX IMVI = system: LOX IMVI
SK-OV-3 = system: SK-OV-3
KM-20L2 = system: KM-20L2
SK-MEL-5 = system: SK-MEL-5
HOP-92 = system: HOP-92
HCT-116 = system: HCT-116
DMS-114 = system: DMS-114
UACC-257 = system: UACC-257
DLD-1 = system: DLD-1
SNB-19 = system: SNB-19
SF-295 = system: SF-295
SR = system: SR
HCT-15 = system: HCT-15
UO-31 = system: UO-31
TK-10 = system: TK-10
DMS-273 = system: DMS-273
786-0 = system: 786-0
SK-MEL-2 = system: SK-MEL-2
EKVX = system: EKVX
OVCAR-8 = system: OVCAR-8
SN12C = system: SN12C
NCI-H460 = system: NCI-H460
CAKI-1 = system: CAKI-1
IGROV-1 = system: IGROV-1
OVCAR-3 = system: OVCAR-3
RPMI-8226 = system: RPMI-8226
SW-620 = system: SW-620
LXFL 529 = system: LXFL 529
NCI-H23 = system: NCI-H23
A549 = system: A549
MOLT-4 = system: MOLT-4
SK-MEL-28 = system: SK-MEL-28
K562 = system: K562
CCRF-CEM = system: CCRF-CEM
HL-60 = system: HL-60
COLO 205 = system: COLO 205
SNB-78 = system: SNB-78
SF-539 = system: SF-539
HOP-18 = system: HOP-18

## O=C1Oc2cc3c(c4cccc1c24)OCN(c1ccccc1)C3
M19-MEL
  GI50: 38.8 µM (inactive)
OVCAR-5
  GI50: > 100 µM (inactive)
A498
  GI50: > 100 µM (inactive)
KM12
  GI50: > 100 µM (inactive)
HOP-62
  GI50: > 100 µM (inactive)
HCC 2998
  GI50: > 100 µM (inactive)
ACHN
  GI50: > 100 µM (inactive)
Malme-3M
  GI50: > 100 µM (inactive)
OVCAR-4
  GI50: > 100 µM (inactive)
UACC-62
  GI50: 36.5 µM (inactive)
HT-29
  GI50: > 100 µM (inactive)
XF498
  GI50: > 100 µM (inactive)
SNB-75
  GI50: > 100 µM (inactive)
U-251
  GI50: > 100 µM (inactive)
RXF 393
  GI50: > 100 µM (inactive)
SF-268
  GI50: > 100 µM (inactive)
NCI-H522
  GI50: 26.2 µM (inactive)
M14
  GI50: > 100 µM (inactive)
LOX IMVI
  GI50: 43.7 µM (inactive)
SK-OV-3
  GI50: > 100 µM (inactive)
KM-20L2
  GI50: > 100 µM (inactive)
SK-MEL-5
  GI50: > 100 µM (inactive)
HOP-92
  GI50: 41.7 µM (inactive)
HCT-116
  GI50: > 100 µM (inactive)
DMS-114
  GI50: 38.1 µM (inactive)
UACC-257
  GI50: > 100 µM (inactive)
DLD-1
  GI50: > 100 µM (inactive)
SNB-19
  GI50: > 100 µM (inactive)
SF-295
  GI50: > 100 µM (inactive)
SR
  GI50: 44.8 µM (inactive)
HCT-15
  GI50: 79.1 µM
UO-31
  GI50: > 100 µM (inactive)
TK-10
  GI50: > 100 µM (inactive)
DMS-273
  GI50: > 100 µM (inactive)
786-0
  GI50: > 100 µM (inactive)
SK-MEL-2
  GI50: > 100 µM (inactive)
EKVX
  GI50: > 100 µM (inactive)
OVCAR-8
  GI50: > 100 µM (inactive)
SN12C
  GI50: > 100 µM (inactive)
NCI-H460
  GI50: > 100 µM (inactive)
CAKI-1
  GI50: 78.3 µM (inactive)
IGROV-1
  GI50: > 100 µM (inactive)
OVCAR-3
  GI50: > 100 µM (inactive)
RPMI-8226
  GI50: 35.1 µM (inactive)
SW-620
  GI50: 83.9 µM (inactive)
LXFL 529
  GI50: 38.6 µM (inactive)
NCI-H23
  GI50: > 100 µM (inactive)
A549
  GI50: > 100 µM (inactive)
MOLT-4
  GI50: > 100 µM (inactive)
SK-MEL-28
  GI50: > 100 µM (inactive)
K562
  GI50: 23.2 µM (inactive)
CCRF-CEM
  GI50: 29.1 µM (inactive)
HL-60
  GI50: 43.5 µM (inactive)
COLO 205
  GI50: > 100 µM (inactive)

## CC1=NN(C(=O)c2ccc(Cl)cc2)C(=O)/C1=C/c1ccco1
M19-MEL
  GI50: > 100 µM (inactive)
OVCAR-5
  GI50: > 100 µM (inactive)
A498
  GI50: > 100 µM (inactive)
KM12
  GI50: > 100 µM (inactive)
HOP-62
  GI50: > 100 µM (inactive)
HCC 2998
  GI50: > 100 µM (inactive)
ACHN
  GI50: > 100 µM (inactive)
Malme-3M
  GI50: > 100 µM (inactive)
OVCAR-4
  GI50: > 100 µM (inactive)
UACC-62
  GI50: > 100 µM (inactive)
HT-29
  GI50: > 100 µM (inactive)
SNB-78
  GI50: 46.1 µM (inactive)
XF498
  GI50: > 100 µM (inactive)
U-251
  GI50: > 100 µM (inactive)
RXF 393
  GI50: > 100 µM (inactive)
SF-268
  GI50: > 100 µM (inactive)
NCI-H522
  GI50: > 100 µM (inactive)
M14
  GI50: > 100 µM (inactive)
LOX IMVI
  GI50: > 100 µM (inactive)
SK-OV-3
  GI50: > 100 µM (inactive)
KM-20L2
  GI50: > 100 µM (inactive)
SK-MEL-5
  GI50: > 100 µM (inactive)
HOP-92
  GI50: > 100 µM (inactive)
HCT-116
  GI50: > 100 µM (inactive)
DMS-114
  GI50: > 100 µM (inactive)
UACC-257
  GI50: > 100 µM (inactive)
DLD-1
  GI50: > 100 µM (inactive)
SNB-19
  GI50: > 100 µM (inactive)
SF-295
  GI50: > 100 µM (inactive)
SF-539
  GI50: > 100 µM (inactive)
HCT-15
  GI50: > 100 µM
UO-31
  GI50: > 100 µM (inactive)
TK-10
  GI50: > 100 µM (inactive)
786-0
  GI50: > 100 µM (inactive)
SK-MEL-2
  GI50: > 100 µM (inactive)
EKVX
  GI50: > 100 µM (inactive)
OVCAR-8
  GI50: > 100 µM (inactive)
SN12C
  GI50: > 100 µM (inactive)
NCI-H460
  GI50: > 100 µM (inactive)
CAKI-1
  GI50: > 100 µM (inactive)
IGROV-1
  GI50: > 100 µM (inactive)
OVCAR-3
  GI50: > 100 µM (inactive)
RPMI-8226
  GI50: > 100 µM (inactive)
SW-620
  GI50: > 100 µM (inactive)
LXFL 529
  GI50: > 100 µM (inactive)
NCI-H23
  GI50: > 100 µM (inactive)
A549
  GI50: > 100 µM (inactive)
MOLT-4
  GI50: > 100 µM (inactive)
SK-MEL-28
  GI50: > 100 µM (inactive)
K562
  GI50: > 100 µM (inactive)
CCRF-CEM
  GI50: > 100 µM (inactive)
HL-60
  GI50: > 100 µM (inactive)
COLO 205
  GI50: > 100 µM (inactive)

## Cc1ccc(NC(=O)C2C(=O)C(=O)N(c3ccc(C)cc3)C2=O)cc1 (stereo unspecified)
M19-MEL
  GI50: > 100 µM (inactive)
OVCAR-5
  GI50: > 100 µM (inactive)
A498
  GI50: > 100 µM (inactive)
KM12
  GI50: > 100 µM (inactive)
HOP-62
  GI50: 93.3 µM (inactive)
HCC 2998
  GI50: > 100 µM (inactive)
ACHN
  GI50: > 100 µM (inactive)
Malme-3M
  GI50: > 100 µM (inactive)
OVCAR-4
  GI50: > 100 µM (inactive)
UACC-62
  GI50: > 100 µM (inactive)
HT-29
  GI50: > 100 µM (inactive)
SNB-78
  GI50: > 100 µM (inactive)
U-251
  GI50: 99.3 µM (inactive)
RXF 393
  GI50: 72.1 µM (inactive)
SF-268
  GI50: > 100 µM (inactive)
NCI-H522
  GI50: > 100 µM (inactive)
M14
  GI50: > 100 µM (inactive)
KM-20L2
  GI50: > 100 µM (inactive)
SK-MEL-5
  GI50: > 100 µM (inactive)
HOP-92
  GI50: > 100 µM (inactive)
HCT-116
  GI50: > 100 µM (inactive)
DMS-114
  GI50: > 100 µM (inactive)
UACC-257
  GI50: > 100 µM (inactive)
DLD-1
  GI50: > 100 µM (inactive)
SNB-19
  GI50: > 100 µM (inactive)
SF-295
  GI50: > 100 µM (inactive)
SR
  GI50: > 100 µM (inactive)
SF-539
  GI50: > 100 µM (inactive)
HCT-15
  GI50: > 100 µM
UO-31
  GI50: > 100 µM (inactive)
TK-10
  GI50: > 100 µM (inactive)
786-0
  GI50: > 100 µM (inactive)
SK-MEL-2
  GI50: > 100 µM (inactive)
EKVX
  GI50: > 100 µM (inactive)
OVCAR-8
  GI50: > 100 µM (inactive)
SN12C
  GI50: > 100 µM (inactive)
NCI-H460
  GI50: > 100 µM (inactive)
IGROV-1
  GI50: > 100 µM (inactive)
SW-620
  GI50: > 100 µM (inactive)
LXFL 529
  GI50: > 100 µM (inactive)
NCI-H23
  GI50: > 100 µM (inactive)
HOP-18
  GI50: > 100 µM (inactive)
A549
  GI50: > 100 µM (inactive)
MOLT-4
  GI50: > 100 µM (inactive)
SK-MEL-28
  GI50: > 10 µM (inactive)
K562
  GI50: > 100 µM (inactive)
CCRF-CEM
  GI50: > 100 µM (inactive)
HL-60
  GI50: > 100 µM (inactive)
COLO 205
  GI50: > 100 µM (inactive)

— ChEMBL document CHEMBL1201862, “PubChem BioAssay data set” (2004)
